Broadly, the IC50 is the concentration at which inhibition is half-maximal. What is called Cmax is the peak of the concentration-time curve.

The values that follow come from ChEMBL document CHEMBL5108059, “Discovery of 2-Methyl-2-(4-(2-methyl-8-(1H-pyrrolo[2,3-b]pyridin-6-yl)-1H-naphtho[1,2-d]imidazol-1-yl)phenyl)propanenitrile as a Novel PI3K/mTOR Inhibitor with Enhanced Antitumor Efficacy In Vitro and In Vivo” (J Med Chem, 2022).

SMILES strings stand for the structures. Activity calls are given as the source filed them. No cut-off for these calls is given here.

The nature of data set [1]: Toxicity in BALB/c nude mouse xenografted with human HeLa cells assessed as pathological changes in kidney at 60 mg/kg, IG administered daily for 30 days by hematoxylin and eosin staining based microscopic analysis. The data set is classed as organism-based. Conditions: in vivo, po, 720 h, time 30 day. On the technique in general: A xenograft is tissue or cells of one species grown in another, often human tumour cells in immunodeficient mice.

The test system of the next data set is HT-29. As to the kind of experiment: Antiproliferative activity against human HT-29 cells with PIK3CA mutation assessed as inhibition of cell growth incubated for 48 to 72 hrs by MTT assay. The data set is classed as functional, cell-based. (In general: Tetrazolium dyes change colour on reduction, which living cells bring about.)
The target in data set [2] is Phosphatidylinositol 4,5-bisphosphate 3-kinase catalytic subunit gamma isoform (Homo sapiens, UniProt P48736). Nature of the data set: Inhibition of PI3Kgamma (unknown origin) using L-alpha-phosphatidylinositol as substrate incubated for 120 mins in presence of ATP by Kinase Glo luminescence assay.
Chain of Phosphatidylinositol 4,5-bisphosphate 3-kinase catalytic subunit gamma isoform (P48736 whole entry, canonical isoform): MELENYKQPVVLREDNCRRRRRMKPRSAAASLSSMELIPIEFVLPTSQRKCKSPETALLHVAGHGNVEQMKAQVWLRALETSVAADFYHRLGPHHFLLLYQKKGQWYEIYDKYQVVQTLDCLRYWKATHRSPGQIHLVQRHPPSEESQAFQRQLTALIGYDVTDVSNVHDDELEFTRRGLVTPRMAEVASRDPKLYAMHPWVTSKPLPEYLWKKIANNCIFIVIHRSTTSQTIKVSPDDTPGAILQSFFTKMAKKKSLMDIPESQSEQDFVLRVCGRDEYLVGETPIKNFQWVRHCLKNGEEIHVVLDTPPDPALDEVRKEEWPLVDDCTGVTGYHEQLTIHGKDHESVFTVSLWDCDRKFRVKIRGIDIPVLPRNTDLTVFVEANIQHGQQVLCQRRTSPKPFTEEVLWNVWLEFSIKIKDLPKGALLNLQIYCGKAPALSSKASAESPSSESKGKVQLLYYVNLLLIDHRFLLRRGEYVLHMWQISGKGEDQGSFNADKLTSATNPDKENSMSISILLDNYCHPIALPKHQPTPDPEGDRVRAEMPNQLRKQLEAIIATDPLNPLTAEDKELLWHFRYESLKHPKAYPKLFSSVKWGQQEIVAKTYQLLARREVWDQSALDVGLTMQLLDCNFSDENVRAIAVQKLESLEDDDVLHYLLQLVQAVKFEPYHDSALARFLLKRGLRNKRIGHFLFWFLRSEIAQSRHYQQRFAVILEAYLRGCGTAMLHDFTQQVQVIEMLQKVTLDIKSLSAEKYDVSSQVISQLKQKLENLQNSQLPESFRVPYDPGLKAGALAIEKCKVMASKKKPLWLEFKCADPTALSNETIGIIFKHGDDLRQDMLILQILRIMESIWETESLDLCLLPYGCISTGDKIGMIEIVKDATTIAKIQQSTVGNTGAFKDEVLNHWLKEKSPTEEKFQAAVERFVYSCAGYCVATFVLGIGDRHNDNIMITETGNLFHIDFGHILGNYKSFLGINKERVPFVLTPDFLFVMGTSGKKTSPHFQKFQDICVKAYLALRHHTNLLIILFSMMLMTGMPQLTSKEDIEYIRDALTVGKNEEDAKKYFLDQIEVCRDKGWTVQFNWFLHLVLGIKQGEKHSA
The test system of data set [3] is HeLa. Nature of the data set: Antitumor activity against human HeLa cells xenografted in BALB/c nude mouse assessed as tumor growth inhibition at 15 mg/kg, IG administered daily for 30 days and measured every 2 days relative to control. It counts as functional. Conditions: po, 720 h, time 30 day, read-out: TGI.
Data set [4] deals with SW-620. Nature of the data set: Antitumor activity against human SW620 cells xenografted in BALB/c nude mouse assessed as tumor growth inhibition at 30 mg/kg, IG administered daily for 30 days and measured every 2 days relative to control. Conditions: SW-620, po, 720 h, time 30 day, read-out: TGI. It counts as functional.
In data set [5] the test system is HeLa. As to the kind of experiment: Inhibition of PI3K/mTOR signalling pathway in human HeLa cells assessed as inhibition of S6 protein phosphorylation incubated for 24 hrs by Western blot analysis. Conditions: dose 0.3125-2.5 µM, DDE = dose-dependent effect. The data set is classed as cell-based. In general terms: In western blotting, separated proteins are transferred to a membrane and probed.

The subject of a further data set is Mus musculus. As to the kind of experiment: In vivo inhibition of PI3K/mTOR signalling pathway in BALB/c nude mouse xenografted with human HeLa cells assessed as downregulation of Akt phosphorylation at Ser473 residue in tumor at 15 to 60 mg/kg, IG administered daily for 30 days. It counts as functional, organism-based. Conditions: dose 15-60 mg/kg, time 30.0 day.

Data set [6] has as its target Phosphatidylinositol 4,5-bisphosphate 3-kinase catalytic subunit beta isoform (Homo sapiens, UniProt P42338). Nature of the data set: Inhibition of PI3Kbeta (unknown origin) using PIP2 as substrate incubated for 1 hr in presence of ATP by Kinase Glo luminescence assay.
The subject of data set [7] is SW-620. As to the kind of experiment: Antiproliferative activity against human SW620 cells assessed as inhibition of cell growth incubated for 48 to 72 hrs by MTT assay. The data set is classed as functional, cell-based.
The nature of data set [8]: Cmax in Sprague-Dawley rat at 10 mg/kg, po measured for 24 hrs by LC-MS/MS analysis. It counts as ADME, organism-based. On the set-up: time 24 hrs, dose 10 mg/kg, route po. Conditions: in vivo.
Data set [9] concerns HeLa. Nature of the data set: Induction of apoptosis in human HeLa cells xenografted in BALB/c nude mouse at 15 to 60 mg/kg, IG administered daily for 30 days by TUNEL assay. It counts as functional, organism-based. Conditions: dose 15-60 mg/kg, time 30.0 day.
The test system of a further data set is NCI-H3122. Nature of the data set: Antiproliferative activity against human NCI-H3122 cells assessed as inhibition of cell growth incubated for 48 to 72 hrs by MTT assay. The data set is classed as functional, cell-based.
The target in data set [10] is T1, Phosphatidylinositol 4,5-bisphosphate 3-kinase catalytic subunit delta isoform (Homo sapiens, UniProt O00329).
T1 sequence (O00329 whole entry): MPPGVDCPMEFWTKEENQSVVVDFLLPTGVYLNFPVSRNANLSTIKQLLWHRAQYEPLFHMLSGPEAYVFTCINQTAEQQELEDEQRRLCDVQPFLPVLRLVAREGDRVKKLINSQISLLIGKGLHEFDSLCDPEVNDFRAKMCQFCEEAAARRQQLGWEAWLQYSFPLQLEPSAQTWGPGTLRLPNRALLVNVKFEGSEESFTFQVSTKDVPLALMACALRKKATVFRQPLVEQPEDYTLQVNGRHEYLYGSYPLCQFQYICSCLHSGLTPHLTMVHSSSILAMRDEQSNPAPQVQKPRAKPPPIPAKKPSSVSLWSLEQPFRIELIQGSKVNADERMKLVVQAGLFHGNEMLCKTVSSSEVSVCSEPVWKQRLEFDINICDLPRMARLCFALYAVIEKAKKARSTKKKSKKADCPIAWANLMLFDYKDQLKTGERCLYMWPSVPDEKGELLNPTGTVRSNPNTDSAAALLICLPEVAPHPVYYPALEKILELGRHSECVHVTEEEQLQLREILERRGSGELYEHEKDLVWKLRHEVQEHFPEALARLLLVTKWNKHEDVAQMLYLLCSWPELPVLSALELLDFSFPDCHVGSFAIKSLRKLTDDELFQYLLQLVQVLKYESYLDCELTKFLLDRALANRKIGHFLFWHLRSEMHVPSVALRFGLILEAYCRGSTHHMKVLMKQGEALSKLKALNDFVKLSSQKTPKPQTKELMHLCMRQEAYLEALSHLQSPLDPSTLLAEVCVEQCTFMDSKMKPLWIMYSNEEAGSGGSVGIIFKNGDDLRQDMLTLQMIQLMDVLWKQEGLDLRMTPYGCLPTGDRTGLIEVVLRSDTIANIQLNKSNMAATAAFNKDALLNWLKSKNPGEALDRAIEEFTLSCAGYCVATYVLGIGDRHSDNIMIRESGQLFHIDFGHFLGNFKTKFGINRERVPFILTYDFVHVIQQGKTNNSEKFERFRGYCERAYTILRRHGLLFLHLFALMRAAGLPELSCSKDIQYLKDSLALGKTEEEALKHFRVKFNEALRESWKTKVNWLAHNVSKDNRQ
As to the kind of experiment: Inhibition of PI3Kdelta (unknown origin) using PIP2 as substrate incubated for 2 hrs in presence of ATP by Kinase Glo luminescence assay.

The nature of data set [11]: Volume of distribution at steady state in Sprague-Dawley rat at 1 mg/kg, iv measured for 24 hrs by LC-MS/MS analysis. The data set is classed as ADME, organism-based. Conditions: in vivo, read-out: Vdss.
The subject of data set [12] is HeLa. Nature of the data set: Induction of apoptosis in human HeLa cells assessed as dead cells at 0.15625 uM incubated for 36 hrs by Annexin V-FITC/PI staining based flow cytometric analysis (reference value: 0.44 %). It counts as functional. Conditions: 0.1562 µM.
The subject of data set [13] is HeLa. As to the kind of experiment: Induction of apoptosis in human HeLa cells assessed as late apoptotic cells at 0.3125 uM incubated for 36 hrs by Annexin V-FITC/PI staining based flow cytometric analysis (reference value: 1.4 %). The data set is classed as functional.
Data set [14] relates to HeLa. As to the kind of experiment: Induction of apoptosis in human HeLa cells assessed as dead cells at 0.3125 uM incubated for 36 hrs by Annexin V-FITC/PI staining based flow cytometric analysis (reference value: 0.44 %). It counts as functional.
Data set [15] relates to HeLa. Nature of the data set: Antitumor activity against human HeLa cells xenografted in BALB/c nude mouse assessed as reduction in Ki67 expression in tumor administered intragastrically daily for 30 days by immunohistochemical analysis. It counts as functional. Conditions: dose 15-60 mg/kg, route ig, time 30.0 day.
The subject of a further data set is NCI-H446. As to the kind of experiment: Antiproliferative activity against PTEN-null human NCI-H446 cells assessed as inhibition of cell growth incubated for 48 to 72 hrs by MTT assay. It counts as functional, cell-based.
In data set [16] the test system is SW-620. As to the kind of experiment: Antitumor activity against human SW620 cells xenografted in BALB/c nude mouse assessed as tumor growth inhibition at 60 mg/kg, IG administered daily for 30 days and measured every 2 days relative to control. The data set is classed as functional. Conditions: SW-620, po, 720 h, time 30 day, read-out: TGI.
Data set [17] concerns HeLa. Nature of the data set: Induction of cell cycle arrest in human HeLa cells assessed as accumulation of cells at G0/G1 phase measured after 24 hrs by propidium iodide staining based flow cytometry analysis. It counts as functional. Conditions: dose 0.15625-2.5 µM, DDE = dose-dependent effect.

Chain of Phosphatidylinositol 4,5-bisphosphate 3-kinase catalytic subunit beta isoform (P42338 whole entry, canonical isoform): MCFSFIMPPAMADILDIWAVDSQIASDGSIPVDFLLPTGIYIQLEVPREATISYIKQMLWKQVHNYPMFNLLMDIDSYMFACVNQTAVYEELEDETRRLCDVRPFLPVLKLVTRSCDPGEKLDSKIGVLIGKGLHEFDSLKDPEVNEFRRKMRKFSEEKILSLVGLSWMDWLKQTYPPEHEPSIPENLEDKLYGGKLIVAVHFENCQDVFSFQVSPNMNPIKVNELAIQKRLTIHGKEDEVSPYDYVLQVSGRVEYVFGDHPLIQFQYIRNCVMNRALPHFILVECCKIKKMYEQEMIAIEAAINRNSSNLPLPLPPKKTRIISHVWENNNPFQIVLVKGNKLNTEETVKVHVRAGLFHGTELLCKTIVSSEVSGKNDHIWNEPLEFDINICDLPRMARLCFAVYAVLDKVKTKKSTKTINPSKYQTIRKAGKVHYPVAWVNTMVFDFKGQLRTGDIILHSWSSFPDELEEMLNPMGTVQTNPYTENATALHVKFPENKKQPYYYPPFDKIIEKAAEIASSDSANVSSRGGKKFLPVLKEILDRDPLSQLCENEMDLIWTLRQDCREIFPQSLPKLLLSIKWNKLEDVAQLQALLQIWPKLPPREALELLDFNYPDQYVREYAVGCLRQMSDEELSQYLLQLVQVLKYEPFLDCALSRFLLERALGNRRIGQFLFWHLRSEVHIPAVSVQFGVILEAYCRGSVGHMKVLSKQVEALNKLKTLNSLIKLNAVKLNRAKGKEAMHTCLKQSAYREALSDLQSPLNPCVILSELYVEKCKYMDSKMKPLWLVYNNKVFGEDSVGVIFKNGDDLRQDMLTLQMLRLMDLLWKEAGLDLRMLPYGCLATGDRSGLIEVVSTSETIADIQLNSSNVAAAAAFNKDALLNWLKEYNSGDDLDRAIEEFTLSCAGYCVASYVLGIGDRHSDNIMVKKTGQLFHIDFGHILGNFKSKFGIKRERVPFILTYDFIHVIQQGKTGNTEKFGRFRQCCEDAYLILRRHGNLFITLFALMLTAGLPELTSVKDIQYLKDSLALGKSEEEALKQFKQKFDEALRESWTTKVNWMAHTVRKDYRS

For the compound `Cc1nc2cnc3ccc(-c4cnc5[nH]ccc5c4)cc3c2n1-c1ccc(C(C)(C)C#N)nc1`, the Activity result in data set [1] was “Non-Toxic”; in the data set with HeLa [12], 0.4%; in the data set on HeLa [13] it was 3%; in the data set on HeLa [14], 0.84%; with HeLa [17], “Dde”. For the same compound, the IC50 in the data set with HT-29 worked out at 250 nM; in data set [2], 5 nM; in data set [6], 108 nM; with SW-620 [7], 160 nM; in the data set with NCI-H3122, 290 nM; in data set [10], 4.6 nM. Moreover, the 50% inhibitory concentration (IC50) in the data set with NCI-H446 worked out at 970 nM. Also, in the data set on HeLa [3], the inhibition in vivo at 15 mg/kg was determined as 60.8%. The inhibition in vivo at 30 mg/kg with SW-620 [4] turned out to be 70.8%. Moreover, in the data set with HeLa [5], the inhibition entry is “Dde”. The inhibition entry in the data set with Mus musculus was “Active”. The same compound displayed a Cmax in [8] of 2995 ng/mL. Further, the outcome in the data set with HeLa [9] and with HeLa [15] was Active. Moreover, the Vd in data set [11] is 1.53 L/kg. Also, the inhibition in vivo at 60 mg/kg with SW-620 [16] was 81%.
